From patent US20220388957A1, “COMPOUNDS AND COMPOSITIONS FOR TREATING CONDITIONS ASSOCIATED WITH STING ACTIVITY” (IFM Due, Inc., priority 2019, published 2022)
pEC50: −log10 of the molar value.

molecular target: T1, Human STING (Homo sapiens, UniProt Q86WV6, G230A/H232R/R293Q/R71H); assay: STING reporter assay (luciferase) in THP1-Dual KO-IFNAR2 cells stimulated with 2′3′cGAMP; type: cell-based; conditions: 2′3′cGAMP 15 μM, 24 h, class symbols
T1 construct: host or cells: THP1-Dual KO-IFNAR2 cells (human monocytic reporter line)
T1 sequence (Q86WV6 whole entry R71H/G230A/H232R/R293Q): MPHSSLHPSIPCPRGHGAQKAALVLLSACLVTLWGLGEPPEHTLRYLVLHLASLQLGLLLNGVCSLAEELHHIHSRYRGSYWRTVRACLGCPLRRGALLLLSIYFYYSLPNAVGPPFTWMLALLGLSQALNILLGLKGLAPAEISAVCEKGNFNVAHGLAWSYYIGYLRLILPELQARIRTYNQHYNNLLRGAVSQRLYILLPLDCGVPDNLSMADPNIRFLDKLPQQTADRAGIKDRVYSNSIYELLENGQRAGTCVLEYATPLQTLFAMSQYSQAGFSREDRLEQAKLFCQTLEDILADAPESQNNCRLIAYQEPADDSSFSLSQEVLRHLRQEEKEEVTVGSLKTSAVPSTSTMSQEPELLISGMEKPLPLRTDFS
Procedure: STING pathway activation by the compounds described herein was measured using THP1-Dual™ cells (KO-IFNAR2).
THP1-Dual™ KO-IFNAR2 Cells (obtained from invivogen) were maintained in RPMI, 10% FCS, 5 ml P/S, 2 mM L-glut, 10 mM Hepes, and 1 mM sodium pyruvate. Compounds were spotted in empty 384 well tissue culture plates (Greiner 781182) by Echo for a final concentration of 0.0017-100 μM. Cells were plated into the TC plates at […], 2×10E6 cells/mL. For activation with STING ligand, 2′3′cGAMP (MW 718.38, obtained from Invivogen), was prepared in Optimem media.
The following solutions were prepared for each 1×384 plate: • o Solution A: 2 mL Optimem with one of the following stimuli: • 60 uL of 10 mM 2′3′cGAMP->150 μM stock • Solution B: 2 mL Optimem with 60 μL Lipofectamine 2000->Incubate 5 min at RT
2 mL of solution A and 2 ml Solution B was mixed and incubated for 20 min at room temperature (RT). 20 μL of transfection solution (A+B) was added on top of the plated cells, with a final 2′3′cGAMP concentration of 15 μM. The plates were then centrifuged immediately at 340 g for 1 minute, after which they were incubated at 37° C., 5% CO2, >98% humidity for 24 h. Luciferase reporter activity was then measured. EC50 values were calculated by using standard methods known in the art.
Luciferase reporter assay: 10 μL of supernatant from the assay was transferred to white 384-plate with flat bottom and squared wells. One pouch of QUANTI-Luc™ Plus was dissolved in 25 mL of water. 100 μL of QLC Stabilizer per 25 mL of QUANTI-Luc™ Plus solution was added. 50 μL of QUANTI-Luc™ Plus/QLC solution per well was then added. Luminescence was measured on a Platereader (e.g., Spectramax I3X (Molecular Devices GF3637001)).
Luciferase reporter activity was then measured. EC50 values were calculated by using standard methods known in the art.

pEC50	SMILES
5.30 to 6.00	CCCCCCCCS(=O)(=O)Nc1c[nH]c2cc(F)c(F)cc12 [Compound 128, N-(5,6-difluoro-1H-indol-3-yl)octane-1-sulfonamide]
4.00 to 5.30	O=S(=O)(Cc1cccc(C(F)(F)F)c1)Nc1c[nH]c2cc(F)c(F)cc12 [Compound 131, N-(5,6-difluoro-1H-indol-3-yl)-1-(3-(trifluoromethyl)phenyl) methanesulfonamide]
4.00 to 5.30	CC(C)c1ccc(S(=O)(=O)Nc2c[nH]c3cc(F)c(F)cc23)cc1 [Compound 141, N-(5,6-difluoro-1H-indol-3-yl)-4-isopropylbenzene-sulfonamide]

More lines, now with the values behind:

SMILES	pEC50
O=S(=O)(Nc1c[nH]nc1-c1ccccc1)c1ccc(C(F)(F)F)cc1 [Compound 106]	4.00 to 5.30
O=S(=O)(Nc1c[nH]c2cc(F)c(F)cc12)c1ccc2c(c1)CCC2 [Compound 135, N-(5,6-difluoro-1H-indol-3-yl)-2,3-dihydro-1H-indene-5-sulfonamide]	4.00 to 5.30
O=S(=O)(Nc1c[nH]c2cc(F)c(F)cc12)c1ccc2c(c1)CCCC2 [Compound 139, N-(5,6-difluoro-1H-indol-3-yl)-5,6,7,8-tetrahydro-naphthalene-2-sulfonamide]	4.00 to 5.30

same assay, conditions: 2′3′cGAMP 15 μM, 24 h, numeric bound

pEC50	SMILES
< 4.00	CC1CNCCC1NS(=O)(=O)c1c[nH]c2nccc(Cl)c12 (stereo not shown) [Compound 112]
